Reference: ChEMBL document CHEMBL4627327, “Antibacterial activity of singly and doubly modified salinomycin derivatives” (Bioorg Med Chem Lett, 2020)
In brackets after ≈: the same amount, converted by molar mass. Activity calls are given as the source filed them. The rule behind the calls is not given here.

Assays:
Staphylococcus aureus [1] = assay: Antibacterial activity against Staphylococcus aureus NCTC 4163 assessed as bacterial growth inhibition measured after 18 hrs by CLSI protocol based two-fold serial microdilution method; format: functional; conditions: for MIC: NCTC 4163, 18 h
Staphylococcus aureus [2] = assay: Antibacterial activity against Staphylococcus aureus ATCC 29213 assessed as bacterial growth inhibition measured after 18 hrs by CLSI protocol based two-fold serial microdilution method; format: functional; conditions: for MIC: ATCC 29213, 18 h
Staphylococcus aureus [3] = assay: Antibacterial activity against Staphylococcus aureus ATCC 25923 assessed as bacterial growth inhibition measured after 18 hrs by CLSI protocol based two-fold serial microdilution method; format: functional; conditions: for MIC: ATCC 25923, 18 h
Staphylococcus aureus [4] = assay: Antibacterial activity against Staphylococcus aureus ATCC 6358 assessed as bacterial growth inhibition measured after 18 hrs by CLSI protocol based two-fold serial microdilution method; format: functional; conditions: for MIC: ATCC 6358, 18 h
[5] = system: Staphylococcus epidermidis; assay: Antibacterial activity against Staphylococcus epidermidis ATCC 12228 assessed as bacterial growth inhibition measured after 18 hrs by CLSI protocol based two-fold serial microdilution method; format: functional; conditions: for MIC: ATCC 12228, 18 h
[6] = system: Staphylococcus epidermidis; assay: Antibacterial activity against Staphylococcus epidermidis ATCC 35984 assessed as bacterial growth inhibition measured after 18 hrs by CLSI protocol based two-fold serial microdilution method; format: functional; conditions: for MIC: ATCC 35984, 18 h
Enterococcus hirae = assay: Antibacterial activity against Enterococcus hirae ATCC 10541 assessed as bacterial growth inhibition measured after 18 hrs by CLSI protocol based two-fold serial microdilution method; format: functional; conditions: for MIC: ATCC 10541, 18 h
Micrococcus luteus = assay: Antibacterial activity against Micrococcus luteus ATCC 9341 assessed as bacterial growth inhibition measured after 18 hrs by CLSI protocol based two-fold serial microdilution method; format: functional; conditions: for MIC: ATCC 9341, 18 h
Pseudomonas aeruginosa [7] = assay: Antibacterial activity against Pseudomonas aeruginosa ATCC 15442 assessed as bacterial growth inhibition measured after 18 hrs by CLSI protocol based two-fold serial microdilution method; format: functional, organism-based
Pseudomonas aeruginosa [8] = assay: Antibacterial activity against Pseudomonas aeruginosa ATCC 27853 assessed as bacterial growth inhibition measured after 18 hrs by CLSI protocol based two-fold serial microdilution method; format: functional, organism-based
Escherichia coli [9] = assay: Antibacterial activity against Escherichia coli NCTC 8196 assessed as bacterial growth inhibition measured after 18 hrs by CLSI protocol based two-fold serial microdilution method; format: functional, organism-based
Escherichia coli [10] = assay: Antibacterial activity against Escherichia coli ATCC 25922 assessed as bacterial growth inhibition measured after 18 hrs by CLSI protocol based two-fold serial microdilution method; format: functional, organism-based
[11] = system: Staphylococcus epidermidis; assay: Antibacterial activity against methicillin-resistant Staphylococcus epidermidis isolate 574 assessed as bacterial growth inhibition measured after 18 hrs by CLSI protocol based two-fold serial microdilution method; format: functional; conditions: isolate 574, 18 h
[12] = system: Staphylococcus epidermidis; assay: Antibacterial activity against methicillin-resistant Staphylococcus epidermidis isolate 602 assessed as bacterial growth inhibition measured after 18 hrs by CLSI protocol based two-fold serial microdilution method; format: functional; conditions: isolate 602, 18 h
[13] = system: Staphylococcus epidermidis; assay: Antibacterial activity against methicillin-resistant Staphylococcus epidermidis isolate 603 assessed as bacterial growth inhibition measured after 18 hrs by CLSI protocol based two-fold serial microdilution method; format: functional; conditions: isolate 603, 18 h
[14] = system: Staphylococcus epidermidis; assay: Antibacterial activity against methicillin-resistant Staphylococcus epidermidis isolate 609 assessed as bacterial growth inhibition measured after 18 hrs by CLSI protocol based two-fold serial microdilution method; format: functional; conditions: isolate 609, 18 h
[15] = system: Staphylococcus epidermidis; assay: Antibacterial activity against methicillin-resistant Staphylococcus epidermidis isolate 610 assessed as bacterial growth inhibition measured after 18 hrs by CLSI protocol based two-fold serial microdilution method; format: functional; conditions: isolate 610, 18 h
[16] = system: Staphylococcus epidermidis; assay: Antibacterial activity against methicillin-resistant Staphylococcus epidermidis isolate 654 assessed as bacterial growth inhibition measured after 18 hrs by CLSI protocol based two-fold serial microdilution method; format: functional; conditions: isolate 654, 18 h
[17] = system: Staphylococcus epidermidis; assay: Antibacterial activity against methicillin-resistant Staphylococcus epidermidis isolate 660 assessed as bacterial growth inhibition measured after 18 hrs by CLSI protocol based two-fold serial microdilution method; format: functional; conditions: isolate 660, 18 h
Staphylococcus aureus [18] = assay: Antibacterial activity against methicillin-resistant Staphylococcus aureus isolate 583 assessed as bacterial growth inhibition measured after 18 hrs by CLSI protocol based two-fold serial microdilution method; format: functional; conditions: isolate 583, 18 h
Staphylococcus aureus [19] = assay: Antibacterial activity against methicillin-resistant Staphylococcus aureus isolate 584 assessed as bacterial growth inhibition measured after 18 hrs by CLSI protocol based two-fold serial microdilution method; format: functional; conditions: isolate 584, 18 h
Staphylococcus aureus [20] = assay: Antibacterial activity against methicillin-resistant Staphylococcus aureus isolate 612 assessed as bacterial growth inhibition measured after 18 hrs by CLSI protocol based two-fold serial microdilution method; format: functional; conditions: isolate 612, 18 h
Staphylococcus aureus [21] = assay: Antibacterial activity against methicillin-resistant Staphylococcus aureus isolate 620 assessed as bacterial growth inhibition measured after 18 hrs by CLSI protocol based two-fold serial microdilution method; format: functional; conditions: isolate 620, 18 h
Staphylococcus aureus [22] = assay: Antibacterial activity against methicillin-resistant Staphylococcus aureus isolate 621 assessed as bacterial growth inhibition measured after 18 hrs by CLSI protocol based two-fold serial microdilution method; format: functional; conditions: isolate 621, 18 h
Staphylococcus aureus [23] = assay: Antibacterial activity against methicillin-resistant Staphylococcus aureus isolate 750 assessed as bacterial growth inhibition measured after 18 hrs by CLSI protocol based two-fold serial microdilution method; format: functional; conditions: isolate 750, 18 h
Staphylococcus aureus [24] = assay: Antibacterial activity against methicillin-resistant Staphylococcus aureus isolate 770 assessed as bacterial growth inhibition measured after 18 hrs by CLSI protocol based two-fold serial microdilution method; format: functional; conditions: isolate 770, 18 h
[25] = system: Staphylococcus epidermidis; assay: Inhibition of biofilm formation in Staphylococcus epidermidis ATCC 35984 at 1 to 8 ug/ml measured after 24 hrs by crystal violet staining based assay; format: functional, organism-based
[26] = system: Staphylococcus epidermidis; assay: Inhibition of biofilm formation in Staphylococcus epidermidis ATCC 12228 at 1 to 8 ug/ml measured after 24 hrs by crystal violet staining based assay; format: functional, organism-based
[27] = Genotoxicity in rec negative Bacillus subtilis M45 assessed as diameter of inhibition zone at 256 ug measured after 24 hrs by rec-assay; format: toxicity; conditions: in vivo
[28] = Genotoxicity in rec-positive Bacillus subtilis H17 assessed as diameter of inhibition zone at 256 ug measured after 24 hrs by rec-assay; format: toxicity; conditions: in vivo

Row | SMILES | Activity (Pseudomonas aeruginosa [7]) | Activity (Pseudomonas aeruginosa [8]) | Activity (Escherichia coli [9]) | Activity (Escherichia coli [10]) | MIC [11] [µM] | MIC [12] [µM] | MIC [13] [µM] | MIC [14] [µM] | MIC [15] [µM] | MIC [16] [µM] | MIC [17] [µM] | MIC (Staphylococcus aureus [18]) [µM] | MIC (Staphylococcus aureus [19]) [µM] | MIC (Staphylococcus aureus [20]) [µM] | MIC (Staphylococcus aureus [21]) [µM] | MIC (Staphylococcus aureus [22]) [µM] | MIC (Staphylococcus aureus [23]) [µM] | MIC (Staphylococcus aureus [24]) [µM] | inhibition [25] | inhibition [26] | further results
1 | CC[C@@H](C(=O)[C@@H](C)[C@@H](O)[C@H](C)[C@@H]1O[C@@H]([C@@H](CC)C(=O)ONC(=O)c2ccccc2)CC[C@@H]1C)[C@H]1O[C@]2(C=CC(=O)[C@]3(CC[C@@](C)([C@H]4CC[C@](O)(CC)[C@H](C)O4)O3)O2)[C@H](C)C[C@@H]1C | inactive | inactive | inactive | inactive | 2.3 (≈ 2 µg/mL) | 4.61 (≈ 4 µg/mL) | 4.61 (≈ 4 µg/mL) | 9.22 (≈ 8 µg/mL) | 18.4 (≈ 16 µg/mL) | 73.7 (≈ 64 µg/mL) | 73.7 (≈ 64 µg/mL) | 36.9 (≈ 32 µg/mL) | 36.9 (≈ 32 µg/mL) | 18.4 (≈ 16 µg/mL) | 18.4 (≈ 16 µg/mL) | 4.61 (≈ 4 µg/mL) | 18.4 (≈ 16 µg/mL) | 73.7 (≈ 64 µg/mL) | Active | Active | Activity (Staphylococcus aureus [1]): Active; Activity (Staphylococcus aureus [2]): Active; Activity (Staphylococcus aureus [3]): Active; Activity (Staphylococcus aureus [4]): Active; Activity [5]: Active; Activity [6]: Active; Activity (Enterococcus hirae): Active; Activity (Micrococcus luteus): Active; diameter of the inhibition zone (DIZ) [27]: 23 mm; diameter of the inhibition zone (DIZ) [28]: 20 mm
2 | CC[C@@H](C(=O)[C@@H](C)[C@@H](O)[C@H](C)[C@@H]1O[C@@H]([C@@H](CC)C(=O)ONC(=O)c2ccccc2O)CC[C@@H]1C)[C@H]1O[C@]2(C=CC(=O)[C@]3(CC[C@@](C)([C@H]4CC[C@](O)(CC)[C@H](C)O4)O3)O2)[C@H](C)C[C@@H]1C | inactive | inactive | inactive | inactive | 2.26 (≈ 2 µg/mL) | 4.52 (≈ 4 µg/mL) | 2.26 (≈ 2 µg/mL) | 2.26 (≈ 2 µg/mL) | 4.52 (≈ 4 µg/mL) | 72.4 (≈ 64 µg/mL) | 72.4 (≈ 64 µg/mL) | 36.2 (≈ 32 µg/mL) | 72.4 (≈ 64 µg/mL) | 4.52 (≈ 4 µg/mL) | 4.52 (≈ 4 µg/mL) | 4.52 (≈ 4 µg/mL) | 4.52 (≈ 4 µg/mL) | 72.4 (≈ 64 µg/mL) | Active | Active | Activity (Staphylococcus aureus [1]): Active; Activity (Staphylococcus aureus [2]): Active; Activity (Staphylococcus aureus [3]): Active; Activity (Staphylococcus aureus [4]): Active; Activity [5]: Active; Activity [6]: Active; Activity (Enterococcus hirae): Active; Activity (Micrococcus luteus): Active; diameter of the inhibition zone (DIZ) [27]: 19 mm; diameter of the inhibition zone (DIZ) [28]: 17 mm
3 | CC[C@@H](C(=O)[C@@H](C)[C@@H](O)[C@H](C)[C@@H]1O[C@@H]([C@@H](CC)C(=O)ONC(=O)c2ccccc2O)CC[C@@H]1C)[C@H]1O[C@]2(C=C[C@@H](O)[C@]3(CC[C@@](C)([C@H]4CC[C@](O)(CC)[C@H](C)O4)O3)O2)[C@H](C)C[C@@H]1C | inactive | inactive | inactive | inactive | 1.13 (≈ 1 µg/mL) | 2.26 (≈ 2 µg/mL) | 2.26 (≈ 2 µg/mL) | 2.26 (≈ 2 µg/mL) | 2.26 (≈ 2 µg/mL) | 4.51 (≈ 4 µg/mL) | 4.51 (≈ 4 µg/mL) | 2.26 (≈ 2 µg/mL) | 4.51 (≈ 4 µg/mL) | 2.26 (≈ 2 µg/mL) | 2.26 (≈ 2 µg/mL) | 2.26 (≈ 2 µg/mL) | 2.26 (≈ 2 µg/mL) | 4.51 (≈ 4 µg/mL) | Active | Active | MIC (Staphylococcus aureus [1]): 1 to 16 µg/mL (≈ 1.13 to 18.1 µM); MIC (Staphylococcus aureus [2]): 1 to 16 µg/mL (≈ 1.13 to 18.1 µM); MIC (Staphylococcus aureus [3]): 1 to 16 µg/mL (≈ 1.13 to 18.1 µM); MIC (Staphylococcus aureus [4]): 1 to 16 µg/mL (≈ 1.13 to 18.1 µM); MIC [5]: 1 to 16 µg/mL (≈ 1.13 to 18.1 µM); MIC [6]: 1 to 16 µg/mL (≈ 1.13 to 18.1 µM); MIC (Enterococcus hirae): 1 to 16 µg/mL (≈ 1.13 to 18.1 µM); MIC (Micrococcus luteus): 1 to 16 µg/mL (≈ 1.13 to 18.1 µM); diameter of the inhibition zone (DIZ) [27]: 30 mm; diameter of the inhibition zone (DIZ) [28]: 24 mm
4 | CC[C@@H](C(=O)[C@@H](C)[C@@H](O)[C@H](C)[C@@H]1O[C@@H]([C@@H](CC)C(=O)ONC(=O)c2ccccc2)CC[C@@H]1C)[C@H]1O[C@]2(C=C[C@@H](O)[C@]3(CC[C@@](C)([C@H]4CC[C@](O)(CC)[C@H](C)O4)O3)O2)[C@H](C)C[C@@H]1C | inactive | inactive | inactive | inactive | 2.3 (≈ 2 µg/mL) | 4.6 (≈ 4 µg/mL) | 4.6 (≈ 4 µg/mL) | 4.6 (≈ 4 µg/mL) | 4.6 (≈ 4 µg/mL) | 18.4 (≈ 16 µg/mL) | 18.4 (≈ 16 µg/mL) | 18.4 (≈ 16 µg/mL) | 18.4 (≈ 16 µg/mL) | 4.6 (≈ 4 µg/mL) | 4.6 (≈ 4 µg/mL) | 2.3 (≈ 2 µg/mL) | 4.6 (≈ 4 µg/mL) | 9.19 (≈ 8 µg/mL) | Active | Active | MIC (Staphylococcus aureus [1]): 1 to 16 µg/mL (≈ 1.15 to 18.4 µM); MIC (Staphylococcus aureus [2]): 1 to 16 µg/mL (≈ 1.15 to 18.4 µM); MIC (Staphylococcus aureus [3]): 1 to 16 µg/mL (≈ 1.15 to 18.4 µM); MIC (Staphylococcus aureus [4]): 1 to 16 µg/mL (≈ 1.15 to 18.4 µM); MIC [5]: 1 to 16 µg/mL (≈ 1.15 to 18.4 µM); MIC [6]: 1 to 16 µg/mL (≈ 1.15 to 18.4 µM); MIC (Enterococcus hirae): 1 to 16 µg/mL (≈ 1.15 to 18.4 µM); MIC (Micrococcus luteus): 1 to 16 µg/mL (≈ 1.15 to 18.4 µM); diameter of the inhibition zone (DIZ) [27]: 32 mm; diameter of the inhibition zone (DIZ) [28]: 25 mm
